From article PMC11873239, “A covalent chemical probe for Chikungunya nsP2 cysteine protease with antialphaviral activity and proteome-wide selectivity” (Scientific Reports, 2025)
Where two headings read alike, the source gives them in different places.

Legend:
Format in all cases: binding
[1] = biological target: HEK293 cell lysate proteins and CHIKV nsP2 (Homo sapiens, UniProt P60709)
[2] = biological target: HEK293 cell lysate proteins and CHIKV nsP2 (Homo sapiens, UniProt P06733)
[3] = biological target: HEK293 cell lysate proteins and CHIKV nsP2 (Homo sapiens, UniProt P22735)
[4] = biological target: HEK293 cell lysate proteins and CHIKV nsP2 (Homo sapiens, UniProt P81605)
[5] = biological target: HEK293 cell lysate proteins and CHIKV nsP2 (Homo sapiens, UniProt P14923)
[6] = system: HEK293 cell lysate proteins and CHIKV nsP2; settings: protein nsP2 (nsP2_AA993-AA1333_Tags)
[7] = biological target: HEK293 cell lysate proteins and CHIKV nsP2 (Homo sapiens, UniProt P32119)
HEK293 cell lysate proteins and CHIKV nsP2 (Homo sapiens, UniProt P32119), sequence (P32119 whole entry): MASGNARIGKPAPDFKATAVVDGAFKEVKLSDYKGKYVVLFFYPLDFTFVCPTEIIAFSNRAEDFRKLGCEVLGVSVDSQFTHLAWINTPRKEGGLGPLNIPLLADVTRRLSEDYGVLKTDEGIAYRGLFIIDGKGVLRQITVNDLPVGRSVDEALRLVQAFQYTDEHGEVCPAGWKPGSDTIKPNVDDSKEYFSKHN

[8] = biological target: HEK293 cell lysate proteins and CHIKV nsP2 (Homo sapiens, UniProt O60231)
[9] = biological target: HEK293 cell lysate proteins and CHIKV nsP2 (Homo sapiens, UniProt Q12872)
[10] = biological target: HEK293 cell lysate proteins and CHIKV nsP2 (Homo sapiens, UniProt P31151)
[11] = biological target: HEK293 cell lysate proteins and CHIKV nsP2 (Homo sapiens, UniProt P10599)
HEK293 cell lysate proteins and CHIKV nsP2 (Homo sapiens, UniProt P10599), sequence (P10599 whole entry): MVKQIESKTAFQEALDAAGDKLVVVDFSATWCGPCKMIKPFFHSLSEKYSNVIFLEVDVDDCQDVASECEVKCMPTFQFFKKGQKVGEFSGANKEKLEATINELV

[12] = biological target: HEK293 cell lysate proteins and CHIKV nsP2 (Homo sapiens, UniProt P31025)
[13] = biological target: HEK293 cell lysate proteins and CHIKV nsP2 (Homo sapiens, UniProt Q8NE71)
HEK293 cell lysate proteins and CHIKV nsP2 (Homo sapiens, UniProt Q8NE71), sequence (Q8NE71 whole entry): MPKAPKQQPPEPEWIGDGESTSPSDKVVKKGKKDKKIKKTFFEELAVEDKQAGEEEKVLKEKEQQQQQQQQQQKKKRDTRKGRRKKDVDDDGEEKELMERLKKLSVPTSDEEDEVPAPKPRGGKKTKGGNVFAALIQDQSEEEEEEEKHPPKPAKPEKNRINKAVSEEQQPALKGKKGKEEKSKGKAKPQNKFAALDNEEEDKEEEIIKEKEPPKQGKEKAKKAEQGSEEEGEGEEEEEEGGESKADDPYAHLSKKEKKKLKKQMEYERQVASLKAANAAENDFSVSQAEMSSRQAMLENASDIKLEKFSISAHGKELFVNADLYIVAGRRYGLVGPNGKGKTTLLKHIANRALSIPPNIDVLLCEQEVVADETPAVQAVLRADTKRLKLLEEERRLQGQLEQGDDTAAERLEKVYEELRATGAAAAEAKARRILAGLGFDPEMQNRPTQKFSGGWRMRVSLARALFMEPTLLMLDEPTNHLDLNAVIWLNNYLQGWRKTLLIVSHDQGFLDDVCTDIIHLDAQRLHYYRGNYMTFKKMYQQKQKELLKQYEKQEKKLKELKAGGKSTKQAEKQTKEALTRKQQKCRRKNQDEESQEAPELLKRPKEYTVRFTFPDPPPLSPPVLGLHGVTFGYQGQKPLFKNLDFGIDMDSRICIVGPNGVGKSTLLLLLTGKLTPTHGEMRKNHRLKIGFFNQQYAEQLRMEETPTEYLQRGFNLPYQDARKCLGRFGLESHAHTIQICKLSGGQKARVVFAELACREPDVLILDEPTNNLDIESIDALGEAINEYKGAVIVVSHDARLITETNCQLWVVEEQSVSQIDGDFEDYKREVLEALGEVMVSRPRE

[14] = biological target: HEK293 cell lysate proteins and CHIKV nsP2 (Homo sapiens, UniProt Q9BQG0)
[15] = biological target: HEK293 cell lysate proteins and CHIKV nsP2 (Homo sapiens, UniProt P12273)
[16] = biological target: HEK293 cell lysate proteins and CHIKV nsP2 (Homo sapiens, UniProt Q15424)
[17] = biological target: HEK293 cell lysate proteins and CHIKV nsP2 (Homo sapiens, UniProt O43290)
[18] = biological target: HEK293 cell lysate proteins and CHIKV nsP2 (Homo sapiens, UniProt P62979)
[19] = biological target: HEK293 cell lysate proteins and CHIKV nsP2 (Homo sapiens, UniProt Q02413)
[20] = biological target: HEK293 cell lysate proteins and CHIKV nsP2 (Homo sapiens, UniProt Q01469)
[21] = biological target: HEK293 cell lysate proteins and CHIKV nsP2 (Homo sapiens, UniProt Q08188)
[22] = biological target: HEK293 cell lysate proteins and CHIKV nsP2 (Homo sapiens, UniProt O14617)
[23] = biological target: HEK293 cell lysate proteins and CHIKV nsP2 (Homo sapiens, UniProt P05089)
[24] = biological target: HEK293 cell lysate proteins and CHIKV nsP2 (Homo sapiens, UniProt Q15517)
[25] = biological target: HEK293 cell lysate proteins and CHIKV nsP2 (Homo sapiens, UniProt Q00610)
[26] = biological target: HEK293 cell lysate proteins and CHIKV nsP2 (Homo sapiens, UniProt P55786)
[27] = biological target: HEK293 cell lysate proteins and CHIKV nsP2 (Homo sapiens, UniProt Q5T749)
[28] = biological target: HEK293 cell lysate proteins and CHIKV nsP2 (Homo sapiens, UniProt P21127)
[29] = biological target: HEK293 cell lysate proteins and CHIKV nsP2 (Homo sapiens, UniProt Q14562)
[30] = biological target: HEK293 cell lysate proteins and CHIKV nsP2 (Homo sapiens, UniProt P11388)
[31] = biological target: HEK293 cell lysate proteins and CHIKV nsP2 (Homo sapiens, UniProt P01040)
[32] = biological target: HEK293 cell lysate proteins and CHIKV nsP2 (Homo sapiens, UniProt Q6KC79)
HEK293 cell lysate proteins and CHIKV nsP2 (Homo sapiens, UniProt Q6KC79), sequence (Q6KC79 whole entry): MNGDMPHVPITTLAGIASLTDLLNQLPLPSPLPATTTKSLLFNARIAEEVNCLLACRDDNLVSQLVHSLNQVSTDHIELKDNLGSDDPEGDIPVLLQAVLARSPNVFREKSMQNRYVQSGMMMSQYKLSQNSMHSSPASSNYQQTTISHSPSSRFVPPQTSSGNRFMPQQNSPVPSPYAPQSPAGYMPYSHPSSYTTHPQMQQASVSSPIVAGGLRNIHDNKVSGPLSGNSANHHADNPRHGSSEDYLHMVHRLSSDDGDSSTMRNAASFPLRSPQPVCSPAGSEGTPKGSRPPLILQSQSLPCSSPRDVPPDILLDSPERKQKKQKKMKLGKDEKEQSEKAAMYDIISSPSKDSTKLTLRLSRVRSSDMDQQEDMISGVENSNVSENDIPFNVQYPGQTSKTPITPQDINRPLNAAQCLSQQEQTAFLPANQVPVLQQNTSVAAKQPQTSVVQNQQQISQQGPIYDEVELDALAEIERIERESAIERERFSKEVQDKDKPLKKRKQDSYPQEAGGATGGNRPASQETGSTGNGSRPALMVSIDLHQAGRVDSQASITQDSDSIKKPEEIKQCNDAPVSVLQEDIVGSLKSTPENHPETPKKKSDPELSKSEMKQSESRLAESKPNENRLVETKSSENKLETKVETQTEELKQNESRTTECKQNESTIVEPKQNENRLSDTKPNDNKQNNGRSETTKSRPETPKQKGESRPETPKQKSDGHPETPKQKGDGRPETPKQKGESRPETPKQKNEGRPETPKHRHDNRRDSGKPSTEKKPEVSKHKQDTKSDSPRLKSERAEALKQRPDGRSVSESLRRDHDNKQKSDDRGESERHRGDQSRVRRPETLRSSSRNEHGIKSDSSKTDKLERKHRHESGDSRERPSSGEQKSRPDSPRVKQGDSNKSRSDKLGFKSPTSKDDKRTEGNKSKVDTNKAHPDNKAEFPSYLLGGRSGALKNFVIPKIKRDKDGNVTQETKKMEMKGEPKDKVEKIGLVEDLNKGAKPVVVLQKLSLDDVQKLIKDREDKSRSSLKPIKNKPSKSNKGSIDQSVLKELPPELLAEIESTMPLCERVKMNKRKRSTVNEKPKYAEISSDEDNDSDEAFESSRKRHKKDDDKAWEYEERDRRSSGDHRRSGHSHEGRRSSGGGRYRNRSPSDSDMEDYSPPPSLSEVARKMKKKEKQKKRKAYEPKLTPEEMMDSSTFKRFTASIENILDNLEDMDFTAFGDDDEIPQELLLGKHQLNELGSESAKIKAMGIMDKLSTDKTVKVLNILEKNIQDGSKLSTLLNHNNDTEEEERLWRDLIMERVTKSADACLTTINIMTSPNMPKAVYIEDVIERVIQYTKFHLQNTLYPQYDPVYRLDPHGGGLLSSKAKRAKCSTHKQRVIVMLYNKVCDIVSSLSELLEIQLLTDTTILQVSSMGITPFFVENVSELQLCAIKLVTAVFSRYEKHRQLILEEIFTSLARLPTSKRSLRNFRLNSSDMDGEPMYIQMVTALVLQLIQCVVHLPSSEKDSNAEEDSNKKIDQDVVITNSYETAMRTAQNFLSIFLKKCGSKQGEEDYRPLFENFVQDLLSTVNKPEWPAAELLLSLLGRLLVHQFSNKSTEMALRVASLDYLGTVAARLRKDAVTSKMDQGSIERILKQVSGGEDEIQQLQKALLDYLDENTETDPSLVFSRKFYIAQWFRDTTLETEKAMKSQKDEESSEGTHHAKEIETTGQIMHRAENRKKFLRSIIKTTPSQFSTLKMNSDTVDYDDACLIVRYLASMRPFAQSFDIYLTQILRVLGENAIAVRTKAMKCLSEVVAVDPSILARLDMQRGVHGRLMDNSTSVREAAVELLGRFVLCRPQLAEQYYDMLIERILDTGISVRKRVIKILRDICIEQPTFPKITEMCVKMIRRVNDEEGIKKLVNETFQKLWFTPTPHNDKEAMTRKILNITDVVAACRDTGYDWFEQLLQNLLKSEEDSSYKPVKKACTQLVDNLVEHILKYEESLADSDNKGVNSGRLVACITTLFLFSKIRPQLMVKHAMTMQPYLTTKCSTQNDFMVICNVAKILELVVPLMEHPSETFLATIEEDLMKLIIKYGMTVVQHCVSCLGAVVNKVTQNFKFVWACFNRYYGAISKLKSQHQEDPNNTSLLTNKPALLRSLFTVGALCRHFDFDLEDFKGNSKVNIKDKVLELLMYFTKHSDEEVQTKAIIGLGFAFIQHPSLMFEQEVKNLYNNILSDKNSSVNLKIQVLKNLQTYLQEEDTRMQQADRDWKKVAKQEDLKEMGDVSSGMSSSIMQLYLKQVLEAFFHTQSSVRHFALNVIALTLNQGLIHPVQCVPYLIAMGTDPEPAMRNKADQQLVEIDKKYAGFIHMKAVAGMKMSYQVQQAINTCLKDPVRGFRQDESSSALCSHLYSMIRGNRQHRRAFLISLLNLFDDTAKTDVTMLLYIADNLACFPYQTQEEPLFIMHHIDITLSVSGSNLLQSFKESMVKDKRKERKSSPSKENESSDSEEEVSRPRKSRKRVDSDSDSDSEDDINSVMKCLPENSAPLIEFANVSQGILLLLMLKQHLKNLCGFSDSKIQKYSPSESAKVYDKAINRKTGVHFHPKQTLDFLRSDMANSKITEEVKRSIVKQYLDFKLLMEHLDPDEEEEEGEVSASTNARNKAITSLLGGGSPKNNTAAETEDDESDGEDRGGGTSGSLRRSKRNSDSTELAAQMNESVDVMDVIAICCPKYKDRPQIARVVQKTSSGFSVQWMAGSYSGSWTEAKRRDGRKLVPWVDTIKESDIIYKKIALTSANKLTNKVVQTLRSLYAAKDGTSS

[33] = biological target: HEK293 cell lysate proteins and CHIKV nsP2 (Homo sapiens, UniProt O60814)
[34] = biological target: HEK293 cell lysate proteins and CHIKV nsP2 (Homo sapiens, UniProt P27816)
HEK293 cell lysate proteins and CHIKV nsP2 (Homo sapiens, UniProt P27816), sequence (P27816 whole entry): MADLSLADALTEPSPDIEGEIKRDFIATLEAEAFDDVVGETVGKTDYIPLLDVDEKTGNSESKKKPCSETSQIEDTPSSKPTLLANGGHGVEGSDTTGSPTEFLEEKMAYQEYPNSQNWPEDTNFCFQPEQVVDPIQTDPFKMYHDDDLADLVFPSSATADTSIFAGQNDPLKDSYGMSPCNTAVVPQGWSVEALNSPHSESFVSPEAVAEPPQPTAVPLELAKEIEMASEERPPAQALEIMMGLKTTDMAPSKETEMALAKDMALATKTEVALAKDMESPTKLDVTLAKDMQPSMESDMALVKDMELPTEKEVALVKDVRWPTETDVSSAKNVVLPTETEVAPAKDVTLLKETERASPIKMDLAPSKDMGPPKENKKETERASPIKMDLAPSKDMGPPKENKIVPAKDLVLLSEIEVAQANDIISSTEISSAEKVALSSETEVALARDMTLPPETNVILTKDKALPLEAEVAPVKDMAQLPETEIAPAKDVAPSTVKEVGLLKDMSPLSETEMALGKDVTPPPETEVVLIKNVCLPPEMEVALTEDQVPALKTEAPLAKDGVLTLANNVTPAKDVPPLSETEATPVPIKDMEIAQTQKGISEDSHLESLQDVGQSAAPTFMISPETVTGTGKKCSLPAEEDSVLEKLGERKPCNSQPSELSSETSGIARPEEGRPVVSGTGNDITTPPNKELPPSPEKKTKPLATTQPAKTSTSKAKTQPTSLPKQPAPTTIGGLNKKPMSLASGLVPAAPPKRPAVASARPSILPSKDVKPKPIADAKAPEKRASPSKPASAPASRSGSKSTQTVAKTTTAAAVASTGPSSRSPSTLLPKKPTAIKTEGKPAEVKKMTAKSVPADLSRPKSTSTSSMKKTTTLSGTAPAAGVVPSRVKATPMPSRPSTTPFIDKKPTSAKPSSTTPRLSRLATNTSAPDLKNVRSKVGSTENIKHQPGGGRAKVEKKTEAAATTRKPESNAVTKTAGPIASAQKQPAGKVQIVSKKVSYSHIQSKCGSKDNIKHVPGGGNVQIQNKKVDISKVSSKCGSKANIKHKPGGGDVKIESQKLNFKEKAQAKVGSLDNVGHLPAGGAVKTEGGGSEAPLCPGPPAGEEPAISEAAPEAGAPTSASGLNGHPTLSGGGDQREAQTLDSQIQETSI

[35] = biological target: HEK293 cell lysate proteins and CHIKV nsP2 (Homo sapiens, UniProt P68104)
[36] = biological target: HEK293 cell lysate proteins and CHIKV nsP2 (Homo sapiens, UniProt P08621)

## C#CCOc1ccccc1-c1cc(C(=O)NC/C=C/S(C)(=O)=O)on1 [VS, (E)-N-(3-(methylsulfonyl)allyl)−3-(2-(prop-2-yn-1-yloxy)phenyl)isoxazole-5-carboxamide]
[1]
  Log2 fold change: 1.54
[2]
  Log2 fold change: 1.36
[3]
  Log2 fold change: 1.60
[4]
  Log2 fold change: 1.36
[5]
  Log2 fold change: 1.97
[6]
  Log2 fold change: 1.03
[6]; sheet nsP2 spike
  Log2 fold change: 7.13
[7]
  Log2 fold change: 2.04
[8]
  Log2 fold change: 4.33
[9]
  Log2 fold change: -1.75
[10]
  Log2 fold change: -1.22
[11]
  Log2 fold change: 1.84
[12]
  Log2 fold change: 1.54
[13]
  Log2 fold change: -0.92
[14]
  Log2 fold change: -0.66
[15]
  Log2 fold change: 1.00
[16]
  Log2 fold change: 1.46
[17]
  Log2 fold change: 0.62
[18]
  Log2 fold change: 0.71
[19]
  Log2 fold change: 1.36
[20]
  Log2 fold change: 2.38
[21]
  Log2 fold change: 1.61
[22]
  Log2 fold change: -0.93
[23]
  Log2 fold change: 1.79
[24]
  Log2 fold change: 1.22
[25]
  Log2 fold change: 3.09
[26]
  Log2 fold change: 2.43
[27]
  Log2 fold change: 2.53
[28]
  Log2 fold change: 0.12
[29]
  Log2 fold change: -0.65
[30]
  Log2 fold change: -1.34
[31]
  Log2 fold change: 1.75
[32]
  Log2 fold change: -0.34
[33]
  Log2 fold change: -1.93
[34]
  Log2 fold change: -0.37
[35]
  Log2 fold change: 0.56
[36]
  Log2 fold change: 3.47
